Assay results reported in US12708607B2, “Thromboxane receptor antagonist formulations” (ATXA THERAPEUTICS LIMITED, priority 2020, dated 2026).
Like-named read-outs stand apart in the source and are kept apart here.

Key:
[1] = test system: TP (thromboxane A2 receptor); assay: whole blood platelet aggregation ex vivo after oral dosing, U46619-induced; type: in vivo, cynomolgus monkey; conditions: 100 mg/kg BID oral, Day 14; 1 μM U46619
Procedure: (§1) Whole blood platelet aggregation assays were performed ex vivo in blood samples taken from the NHPs (n=3) administered 100 mg/kg NTP42:KVA4, BID (200 mg/kg/day) for 14 days. In this type of platelet aggregation assay, a reduction in platelet numbers is indicative of platelet aggregation. Blood was collected prior to (pre-dose), and at 45 min- and 24 h-following the first daily dose, and platelet numbers determined in blood samples at baseline (untreated), and in blood samples incubated with drug vehicle, the thromboxane mimetic, U46619 or, as control, other platelet agonists (e.g., ADP, collagen, thrombin, ristocetin, epinephrine). Baseline platelet counts ranged from 120-190×10^3 platelets/μl.
(§2) Whole blood platelet aggregation assays were performed ex vivo in blood samples taken from the NHPs (n=3) administered 100 mg/kg NTP42:KVA4, BID (200 mg/kg/day) for 14 days. Blood was collected prior to (pre-dose), and at 45 min- and 24 h-following the first daily dose, and platelet numbers determined in blood samples at baseline (untreated), and in blood samples incubated with drug vehicle, the thromboxane mimetic, U46619 or, as control, 50 μM ADP. In this assay, a reduction in platelet numbers is indicative of platelet aggregation.

[2] = test system: platelet aggregation induced by other platelet agonists; assay: whole blood platelet aggregation ex vivo after oral dosing, other platelet agonists (e.g. 50 μM ADP); type: in vivo, cynomolgus monkey; conditions: 100 mg/kg BID oral, Day 14
Procedure: as §1, §2

[3] = NTP42 levels in NHP plasma after repeat oral dosing; type: in vivo, cynomolgus monkey; conditions: for Cmax at 14 days: cynomolgus monkey, plasma, oral, 14 days repeat dosing of NTP42:KVA4 at 200 mg/kg/day
MCT-induced PAH = conditions: Mulvaney et al. 2020; cited from earlier work
Su/Hx-induced PAH = conditions: Mulvaney et al. 2020; cited from earlier work

CC(C)(C)NC(=O)NS(=O)(=O)c1cc(C#N)ccc1Oc1cccc(-c2ccc(OC(F)F)cc2)c1 [NTP42]
TXA2 (U46619)-induced / TP-mediated platelet aggregation ex vivo [1]: selectively inhibited | aggregation induced by other platelet agonists [2]: did not affect | NTP42 levels in NHP plasma 24 h post-dosing ([3]; 24 h post-dosing, 200 mg/kg/day for 14 days): still detectable | Cmax at 14 days ([3]; read-out: Cmax of NTP42 in NHP plasma): 13.2 µg/mL | Cmax at 14 days ([3]; read-out: Cmax of NTP42 in NHP plasma, molar equivalent): 25 µM | NTP42 in NHP plasma prior to the first daily dose ([3]; pre-dose, Day 14): present | efficacy of non-formulated drug in MCT-induced model of PAH (MCT-induced PAH): has shown efficacy | efficacy of non-formulated drug in Su/Hx-induced model of PAH (Su/Hx-induced PAH): has shown efficacy
